# Measurements taken from PubChem BioAssay (NCI).
#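 Tested at 5 concentrations; 48 h exposure; 96-well plates; endpoints linearly interpolated, else capped at highest concentration. Here, GI50 denotes the concentration required for 50% inhibition of growth. Definition used: TGI = concentration required for complete inhibition of growth.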
# Legend:
# Assay in all cases: growth of human tumour cells (NCI), 48 h
# A549 NSCLC = test system: A549 NSCLC
# NCI-H23 lung = test system: NCI-H23 lung
# SK-OV-3 ovarian = test system: SK-OV-3 ovarian
# OVCAR-5 ovarian = test system: OVCAR-5 ovarian
# SW-620 colon = test system: SW-620 colon
# HCT-116 colon = test system: HCT-116 colon
# HCT-15 colon = test system: HCT-15 colon
# PC-3 prostate = test system: PC-3 prostate
# T-47D breast = test system: T-47D breast
# MDA-N = test system: MDA-N
# OVCAR-4 ovarian = test system: OVCAR-4 ovarian
# SF-295 CNS = test system: SF-295 CNS
# SK-MEL-28 melanoma = test system: SK-MEL-28 melanoma
# HT29 colon = test system: HT29 colon
# HOP-92 NSCLC = test system: HOP-92 NSCLC
# 786-0 renal = test system: 786-0 renal
# NCI/ADR-RES ovarian = test system: NCI/ADR-RES ovarian
# LOX IMVI melanoma = test system: LOX IMVI melanoma
# CAKI-1 renal = test system: CAKI-1 renal
# SF-268 CNS = test system: SF-268 CNS
# KM12 colon = test system: KM12 colon
# OVCAR-3 ovarian = test system: OVCAR-3 ovarian
# IGROV1 ovarian = test system: IGROV1 ovarian
# HOP-62 NSCLC = test system: HOP-62 NSCLC
# DU-145 prostate = test system: DU-145 prostate
# SNB-75 CNS = test system: SNB-75 CNS
# MDA-MB-435 = test system: MDA-MB-435
# HCC-2998 colon = test system: HCC-2998 colon
# COLO 205 colon = test system: COLO 205 colon
# SK-MEL-5 melanoma = test system: SK-MEL-5 melanoma
# K-562 leukemia = test system: K-562 leukemia
# M14 melanoma = test system: M14 melanoma
# TK-10 renal = test system: TK-10 renal
# MALME-3M melanoma = test system: MALME-3M melanoma
# A498 renal = test system: A498 renal
# HS 578T breast = test system: HS 578T breast
# ACHN renal = test system: ACHN renal
# EKVX NSCLC = test system: EKVX NSCLC
# SF-539 CNS = test system: SF-539 CNS
# UACC-257 melanoma = test system: UACC-257 melanoma
# SK-MEL-2 melanoma = test system: SK-MEL-2 melanoma
# UO-31 renal = test system: UO-31 renal
# UACC-62 melanoma = test system: UACC-62 melanoma
# MCF7 breast = test system: MCF7 breast
# HL-60(TB) leukemia = test system: HL-60(TB) leukemia
# SN12C renal = test system: SN12C renal
# NCI-H226 lung = test system: NCI-H226 lung
# CCRF-CEM leukemia = test system: CCRF-CEM leukemia
# OVCAR-8 ovarian = test system: OVCAR-8 ovarian
# SR leukemia = test system: SR leukemia
# SNB-19 CNS = test system: SNB-19 CNS
# MDA-MB-231 breast = test system: MDA-MB-231 breast
# U251 CNS = test system: U251 CNS
# MOLT-4 leukemia = test system: MOLT-4 leukemia
# RPMI-8226 leukemia = test system: RPMI-8226 leukemia
# NCI-H460 lung = test system: NCI-H460 lung
# BT-549 breast = test system: BT-549 breast
# RXF 393 renal = test system: RXF 393 renal
# NCI-H522 lung = test system: NCI-H522 lung
compound,measurement,setting,value
O=C(CCc1ccc(O)cc1)c1c(O)cc(O)cc1OC1OC(CO)C(O)C(O)C1O (configuration not stated),TGI,A549 NSCLC,> 100 µM
same,TGI,NCI-H23 lung,> 100 µM
same,TGI,SK-OV-3 ovarian,> 100 µM
same,TGI,OVCAR-5 ovarian,> 100 µM
same,TGI,SW-620 colon,> 100 µM
same,TGI,HCT-116 colon,> 100 µM
same,TGI,HCT-15 colon,> 100 µM
same,TGI,PC-3 prostate,> 100 µM
same,TGI,T-47D breast,> 100 µM
same,TGI,MDA-N,> 100 µM
same,TGI,OVCAR-4 ovarian,> 100 µM
same,TGI,SF-295 CNS,> 100 µM
same,TGI,SK-MEL-28 melanoma,> 100 µM
same,TGI,HT29 colon,> 100 µM
same,TGI,HOP-92 NSCLC,> 100 µM
same,TGI,786-0 renal,> 100 µM
same,TGI,NCI/ADR-RES ovarian,> 100 µM
same,TGI,LOX IMVI melanoma,> 100 µM
same,TGI,CAKI-1 renal,> 100 µM
same,TGI,SF-268 CNS,> 100 µM
same,TGI,KM12 colon,> 100 µM
same,TGI,OVCAR-3 ovarian,> 100 µM
same,TGI,IGROV1 ovarian,> 100 µM
same,TGI,HOP-62 NSCLC,> 100 µM
same,TGI,DU-145 prostate,> 100 µM
same,TGI,SNB-75 CNS,> 100 µM
same,TGI,MDA-MB-435,> 100 µM
same,TGI,HCC-2998 colon,> 100 µM
same,TGI,COLO 205 colon,> 100 µM
same,TGI,SK-MEL-5 melanoma,> 100 µM
same,TGI,K-562 leukemia,> 100 µM
same,TGI,M14 melanoma,> 100 µM
same,TGI,TK-10 renal,> 100 µM
same,TGI,MALME-3M melanoma,> 100 µM
same,TGI,A498 renal,> 100 µM
same,TGI,HS 578T breast,> 100 µM
same,TGI,ACHN renal,> 100 µM
same,TGI,EKVX NSCLC,> 100 µM
same,TGI,SF-539 CNS,> 100 µM
same,TGI,UACC-257 melanoma,> 100 µM
same,TGI,SK-MEL-2 melanoma,> 100 µM
same,TGI,UO-31 renal,> 100 µM
same,TGI,UACC-62 melanoma,> 100 µM
O=C(/C=C/c1cccs1)c1ccc(Cl)cc1,TGI,MCF7 breast,> 100 µM
same,TGI,A549 NSCLC,> 100 µM
same,TGI,NCI-H23 lung,> 100 µM
same,TGI,SK-OV-3 ovarian,> 100 µM
same,TGI,HL-60(TB) leukemia,70.5 µM
same,TGI,OVCAR-5 ovarian,> 100 µM
same,TGI,SN12C renal,> 100 µM
same,TGI,SW-620 colon,92.9 µM
same,TGI,HCT-116 colon,> 100 µM
same,TGI,HCT-15 colon,> 100 µM
same,TGI,PC-3 prostate,> 100 µM
same,TGI,T-47D breast,> 100 µM
same,TGI,MDA-N,> 100 µM
same,TGI,SF-295 CNS,> 100 µM
same,TGI,SK-MEL-28 melanoma,> 100 µM
same,TGI,HT29 colon,> 100 µM
same,TGI,786-0 renal,> 100 µM
same,TGI,NCI/ADR-RES ovarian,> 100 µM
same,TGI,NCI-H226 lung,> 100 µM
same,TGI,SF-268 CNS,> 100 µM
same,TGI,CCRF-CEM leukemia,68 µM
same,TGI,OVCAR-8 ovarian,> 100 µM
same,TGI,KM12 colon,> 100 µM
same,TGI,IGROV1 ovarian,> 100 µM
same,TGI,HOP-62 NSCLC,> 100 µM
same,TGI,DU-145 prostate,> 100 µM
same,TGI,SR leukemia,71.1 µM
same,TGI,SNB-75 CNS,> 100 µM
same,TGI,SNB-19 CNS,> 100 µM
same,TGI,HCC-2998 colon,> 100 µM
same,TGI,COLO 205 colon,> 100 µM
same,TGI,SK-MEL-5 melanoma,> 100 µM
same,TGI,MDA-MB-231 breast,> 100 µM
same,TGI,U251 CNS,> 100 µM
same,TGI,TK-10 renal,> 100 µM
same,TGI,MALME-3M melanoma,> 100 µM
same,TGI,A498 renal,> 100 µM
same,TGI,HS 578T breast,> 100 µM
same,TGI,MOLT-4 leukemia,48.9 µM
same,TGI,ACHN renal,> 100 µM
same,TGI,EKVX NSCLC,> 100 µM
same,TGI,SF-539 CNS,> 100 µM
same,TGI,UACC-257 melanoma,> 100 µM
same,TGI,RPMI-8226 leukemia,57.8 µM
same,TGI,SK-MEL-2 melanoma,> 100 µM
same,TGI,UO-31 renal,> 100 µM
same,TGI,UACC-62 melanoma,> 100 µM
same,TGI,NCI-H460 lung,> 100 µM
CC1=C2[C@@H](CC1)[C@]1(C)O[C@@](C(C)C)(C[C@H]1OC(=O)[C@H](C)O)[C@H]2OC(=O)/C=C/c1ccccc1,GI50,MCF7 breast,8.15 µM
same,TGI,MCF7 breast,23.5 µM
same,GI50,BT-549 breast,0.888 µM
same,TGI,BT-549 breast,15.7 µM
same,GI50,A549 NSCLC,12.5 µM
same,TGI,A549 NSCLC,28.9 µM
same,GI50,NCI-H23 lung,14.3 µM
same,TGI,NCI-H23 lung,33.3 µM
same,GI50,SK-OV-3 ovarian,15.3 µM
same,TGI,SK-OV-3 ovarian,38 µM
same,GI50,HL-60(TB) leukemia,13.5 µM
same,TGI,HL-60(TB) leukemia,39.5 µM
same,GI50,OVCAR-5 ovarian,17.7 µM
same,TGI,OVCAR-5 ovarian,36.2 µM
same,GI50,SN12C renal,1.47 µM
same,TGI,SN12C renal,24.6 µM
same,GI50,SW-620 colon,16.4 µM
same,TGI,SW-620 colon,33.9 µM
same,GI50,HCT-116 colon,13.4 µM
same,TGI,HCT-116 colon,29.2 µM
same,GI50,HCT-15 colon,11.2 µM
same,TGI,HCT-15 colon,25.4 µM
same,GI50,PC-3 prostate,4.46 µM
same,TGI,PC-3 prostate,19.1 µM
same,GI50,T-47D breast,5.38 µM
same,TGI,T-47D breast,22.4 µM
same,GI50,RXF 393 renal,0.111 µM
same,TGI,RXF 393 renal,2.41 µM
same,GI50,OVCAR-4 ovarian,10.3 µM
same,TGI,OVCAR-4 ovarian,24.9 µM
same,GI50,SF-295 CNS,11.5 µM
same,TGI,SF-295 CNS,24.8 µM
same,GI50,SK-MEL-28 melanoma,16.5 µM
same,TGI,SK-MEL-28 melanoma,34.3 µM
same,GI50,HT29 colon,13.6 µM
same,TGI,HT29 colon,30 µM
same,GI50,HOP-92 NSCLC,5.95 µM
same,TGI,HOP-92 NSCLC,19.4 µM
same,GI50,786-0 renal,3.26 µM
same,TGI,786-0 renal,25.4 µM
same,GI50,NCI/ADR-RES ovarian,0.428 µM
same,TGI,NCI/ADR-RES ovarian,16 µM
same,GI50,LOX IMVI melanoma,15.1 µM
same,TGI,LOX IMVI melanoma,30.7 µM
same,GI50,CAKI-1 renal,6.12 µM
same,TGI,CAKI-1 renal,26 µM
same,GI50,NCI-H226 lung,12.9 µM
same,TGI,NCI-H226 lung,29.6 µM
same,GI50,SF-268 CNS,2.13 µM
same,TGI,SF-268 CNS,23.1 µM
same,GI50,CCRF-CEM leukemia,16.2 µM
same,TGI,CCRF-CEM leukemia,41.9 µM
same,GI50,OVCAR-8 ovarian,0.451 µM
same,TGI,OVCAR-8 ovarian,16.6 µM
same,GI50,KM12 colon,14.8 µM
same,TGI,KM12 colon,33 µM
same,GI50,OVCAR-3 ovarian,12.5 µM
same,TGI,OVCAR-3 ovarian,26.1 µM
same,GI50,IGROV1 ovarian,19.2 µM
same,TGI,IGROV1 ovarian,49.8 µM
same,GI50,HOP-62 NSCLC,13.9 µM
same,TGI,HOP-62 NSCLC,29.3 µM
same,GI50,DU-145 prostate,15.9 µM
same,TGI,DU-145 prostate,31.9 µM
same,GI50,SR leukemia,10.3 µM
same,TGI,SR leukemia,37.5 µM
same,GI50,SNB-75 CNS,19.2 µM
same,TGI,SNB-75 CNS,51.2 µM
same,GI50,SNB-19 CNS,17.1 µM
same,TGI,SNB-19 CNS,37.2 µM
same,GI50,MDA-MB-435,15.5 µM
same,TGI,MDA-MB-435,30.9 µM
same,GI50,HCC-2998 colon,13.4 µM
same,TGI,HCC-2998 colon,28.2 µM
same,GI50,COLO 205 colon,16.9 µM
same,TGI,COLO 205 colon,36.2 µM
same,GI50,SK-MEL-5 melanoma,13.6 µM
same,TGI,SK-MEL-5 melanoma,26.7 µM
same,GI50,MDA-MB-231 breast,15.3 µM
same,TGI,MDA-MB-231 breast,36.4 µM
same,GI50,K-562 leukemia,12.5 µM
same,TGI,K-562 leukemia,49.8 µM
same,GI50,U251 CNS,14.2 µM
same,TGI,U251 CNS,28 µM
same,GI50,M14 melanoma,13.4 µM
same,TGI,M14 melanoma,32.5 µM
same,GI50,TK-10 renal,16.3 µM
same,TGI,TK-10 renal,32 µM
same,GI50,MALME-3M melanoma,14.9 µM
same,TGI,MALME-3M melanoma,31.6 µM
same,GI50,A498 renal,0.236 µM
same,TGI,A498 renal,0.702 µM
same,GI50,HS 578T breast,0.0529 µM
same,TGI,HS 578T breast,0.378 µM
same,GI50,MOLT-4 leukemia,10.7 µM
same,TGI,MOLT-4 leukemia,32 µM
same,GI50,ACHN renal,0.145 µM
same,TGI,ACHN renal,13 µM
same,GI50,NCI-H522 lung,13.3 µM
same,TGI,NCI-H522 lung,29.1 µM
same,GI50,EKVX NSCLC,6.19 µM
same,TGI,EKVX NSCLC,21.7 µM
same,GI50,SF-539 CNS,15 µM
same,TGI,SF-539 CNS,30.9 µM
same,GI50,UACC-257 melanoma,17 µM
same,TGI,UACC-257 melanoma,34.1 µM
same,GI50,RPMI-8226 leukemia,7.9 µM
same,TGI,RPMI-8226 leukemia,30.8 µM
same,GI50,SK-MEL-2 melanoma,16.1 µM
same,TGI,SK-MEL-2 melanoma,33 µM
same,GI50,UO-31 renal,1.01 µM
same,TGI,UO-31 renal,18.7 µM
same,GI50,UACC-62 melanoma,12.2 µM
same,TGI,UACC-62 melanoma,27.4 µM
same,GI50,NCI-H460 lung,14.8 µM
same,TGI,NCI-H460 lung,36.7 µM
